According to patent US20240124417A1, “COMPOUNDS USEFUL AS IMMUNOMODULATORS” (Bristol-Myers Squibb Company, priority 2019, published 2024):

These molecules were tested against T1, PD-1/PD-L1 (Homo sapiens, UniProt Q9NZQ7) (assay: PD-1/PD-L1 Homogenous Time-Resolved Fluorescence (HTRF) binding assay). Conditions: PD-L1-His 10 nM, PD-1-Ig 20 nM.
T1 construct: TVMV protease site linker (C); made in house; host or cells: HEK293T cells
Procedure, shortened: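 Time-resolved FRET read-out using Eu-cryptate anti-Ig (1 nM final) and APC anti-His (20 nM final). Tagged extracellular domains were used in BSA/Tween-20-supplemented dPBS, with compound pre-incubated 15 min with PD-L1-His (10 nM) before PD-1-Ig (20 nM) was added for 15 min. Other human pairs: PD-L2-His 5 nM with PD-1-Ig 20 nM; PD-L1-Ig 10 nM with CD80-His 100 nM.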

T1 sequence (Q9NZQ7 18-239): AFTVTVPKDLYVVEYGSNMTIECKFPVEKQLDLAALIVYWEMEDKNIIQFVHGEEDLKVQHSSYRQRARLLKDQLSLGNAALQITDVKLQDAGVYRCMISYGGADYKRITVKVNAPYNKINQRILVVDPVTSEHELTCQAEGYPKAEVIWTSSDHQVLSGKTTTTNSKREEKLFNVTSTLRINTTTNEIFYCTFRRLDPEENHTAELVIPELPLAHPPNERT

IC50 [nM]	SMILES
0.2	Cc1c(COc2cc(OCc3cncc(C#N)c3)c(CNCc3cc[nH]n3)cc2Cl)cccc1-c1cccc(OCCCN2CC[C@@H](O)C2)c1C [Example 2001, (R)-5-((2-((((1H-pyrazol-3-yl)methyl)amino)methyl)-4-chloro-5-((3′-(3-(3-hydroxypyrrolidin-1-yl)propoxy)-2,2′-dimethyl-[1,1′-biphenyl]-3-yl)methoxy)phenoxy)methyl)nicotinonitrile]
9.3	Cc1c(COc2cc(OCc3cncc(C#N)c3)c(CNCc3ncn[nH]3)cc2Cl)cccc1-c1cccc(OCCCN2CC[C@@H](O)C2)c1C [Example 2002, (R)-5-((2-((((1H-1,2,4-triazol-5-yl)methyl)amino)methyl)-4-chloro-5-((3′-(3-(3-hydroxypyrrolidin-1-yl)propoxy)-2,2′-dimethyl-[1,1′-biphenyl]-3-yl)methoxy)phenoxy)methyl)nicotinonitrile]
7.2	Cc1c(COc2cc(OCc3cncc(C#N)c3)c(CNCc3c[nH]cn3)cc2Cl)cccc1-c1cccc(OCCCN2CC[C@@H](O)C2)c1C [Example 2003, (R)-5-((2-((((1H-imidazol-4-yl)methyl)amino)methyl)-4-chloro-5-((3′-(3-(3-hydroxypyrrolidin-1-yl)propoxy)-2,2′-dimethyl-[1,1′-biphenyl]-3-yl)methoxy)phenoxy)methyl)nicotinonitrile]
4.1	Cc1c(COc2cc(OCc3cncc(C#N)c3)c(CNCc3ncc[nH]3)cc2Cl)cccc1-c1cccc(OCCCN2CC[C@@H](O)C2)c1C [Example 2004, (R)-5-((2-((((1H-imidazol-2-yl)methyl)amino)methyl)-4-chloro-5-((3′-(3-(3-hydroxypyrrolidin-1-yl)propoxy)-2,2′-dimethyl-[1,1′-biphenyl]-3-yl)methoxy)phenoxy)methyl)nicotinonitrile]
0.2	Cc1c(COc2cc(OCc3cncc(C#N)c3)c(CN(C)Cc3ncn[nH]3)cc2Cl)cccc1-c1cccc(OCCCN2CC[C@@H](O)C2)c1C [Example 2006, (R)-5-((2-((((1H-1,2,4-triazol-5-yl)methyl)(methyl)amino)methyl)-4-chloro-5-((3′-(3-(3-hydroxypyrrolidin-1-yl)propoxy)-2,2′-dimethyl-[1,1′-biphenyl]-3-yl)methoxy)phenoxy)methyl)nicotinonitrile]
0.6	Cc1c(COc2cc(OCc3cncc(C#N)c3)c(CN(C)Cc3c[nH]cn3)cc2Cl)cccc1-c1cccc(OCCCN2CC[C@@H](O)C2)c1C [Example 2007, (R)-5-((2-((((1H-imidazol-4-yl)methyl)(methyl)amino)methyl)-4-chloro-5-((3′-(3-(3-hydroxypyrrolidin-1-yl)propoxy)-2,2′-dimethyl-[1,1′-biphenyl]-3-yl)methoxy)phenoxy)methyl)nicotinonitrile]
0.5	Cc1c(COc2cc(OCc3cncc(C#N)c3)c(CN(C)Cc3ncc[nH]3)cc2Cl)cccc1-c1cccc(OCCCN2CC[C@@H](O)C2)c1C [Example 2008, (R)-5-((2-((((1H-imidazol-2-yl)methyl)(methyl)amino)methyl)-4-chloro-5-((3′-(3-(3-hydroxypyrrolidin-1-yl)propoxy)-2,2′-dimethyl-[1,1′-biphenyl]-3-yl)methoxy)phenoxy)methyl)nicotinonitrile]

The remaining lines, values behind:

SMILES	IC50 [nM]
CC(=O)NC1CCN(CCCOc2cccc(-c3cccc(COc4cc(OCc5cncc(C#N)c5)c(CNc5nnn[nH]5)cc4Cl)c3C)c2Cl)CC1 [Example 1056, N-(1-(3-((3′-((4-(((1H-Tetrazol-5-yl)amino)methyl)-2-chloro-5-((5-cyanopyridin-3-yl)-methoxy)phenoxy)methyl)-2-chloro-2′-methyl-[1,1′-biphenyl]-3-yl)oxy)propyl)piperidin-4-yl)acetamide]	1.8
CC(=O)NC1CCN(CCCOc2cccc(-c3cccc(COc4cc(OCc5cncc(C#N)c5)c(CNCc5nnn[nH]5)cc4Cl)c3C)c2Cl)CC1 [Example 1057, N-(1-(3-((3′-((4-((((1H-Tetrazol-5-yl)methyl)amino)methyl)-2-chloro-5-((5-cyano-pyridin-3-yl)methoxy)phenoxy)methyl)-2-chloro-2′-methyl-[1,1′-biphenyl]-3-yl)oxy)-propyl)piperidin-4-yl)acetamide]	0.7
CC(=O)NC1CCN(CCCOc2cccc(-c3cccc(COc4cc(OCc5cncc(C#N)c5)c(CN5CCC(c6nnn[nH]6)C5)cc4Cl)c3C)c2Cl)CC1 (centres unmarked) [Example 1058, N-(1-(3-((3′-((4-((3-(1H-Tetrazol-5-yl)pyrrolidin-1-yl)methyl)-2-chloro-5-((5-cyano-pyridin-3-yl)methoxy)phenoxy)methyl)-2-chloro-2′-methyl-[1,1′-biphenyl]-3-yl)oxy)-propyl)piperidin-4-yl)acetamide]	1.9
CC(=O)NC1CCN(CCCOc2cccc(-c3cccc(COc4cc(OCc5cncc(C#N)c5)c(CN5CCCCC5c5cn[nH]c5)cc4Cl)c3C)c2Cl)CC1 (centres unmarked) [Example 1059, N-(1-(3-((3′-((4-((2-(1H-Pyrazol-4-yl)piperidin-1-yl)methyl)-2-chloro-5-((5-cyano-pyridin-3-yl)methoxy)phenoxy)methyl)-2-chloro-2′-methyl-[1,1′-biphenyl]-3-yl)oxy)-propyl)piperidin-4-yl)acetamide]	3.6
Cc1c(COc2cc(OCc3cncc(C#N)c3)c(CN(C)Cc3cc[nH]n3)cc2Cl)cccc1-c1cccc(OCCCN2CC[C@@H](O)C2)c1C [Example 2005, (R)-5-((2-((((1H-pyrazol-3-yl)methyl)(methyl)amino)methyl)-4-chloro-5-((3′-(3-(3-hydroxypyrrolidin-1-yl)propoxy)-2,2′-dimethyl-[1,1′-biphenyl]-3-yl)methoxy)phenoxy)methyl)nicotinonitrile]	2.5
Cc1c(COc2cc(OCc3cncc(C#N)c3)c(CNCc3ncn[nH]3)cc2Cl)cccc1-c1cccc(OCCCN2CCC(O)(CO)CC2)c1Cl [Example 2009, 5-((2-((((1H-1,2,4-triazol-5-yl)methyl)amino)methyl)-4-chloro-5-((2′-chloro-3′-(3-(4-hydroxy-4-(hydroxymethyl)piperidin-1-yl)propoxy)-2-methyl-[1,1′-biphenyl]-3-yl)methoxy)phenoxy)methyl)nicotinonitrile]	2.1
Cc1c(COc2cc(OCc3cncc(C#N)c3)c(CNCc3c[nH]cn3)cc2Cl)cccc1-c1cccc(OCCCN2CCC(O)(CO)CC2)c1Cl [Example 2010, 5-((2-((((1H-imidazol-4-yl)methyl)amino)methyl)-4-chloro-5-((2′-chloro-3′-(3-(4-hydroxy-4-(hydroxymethyl)piperidin-1-yl)propoxy)-2-methyl-[1,1′-biphenyl]-3-yl)methoxy)phenoxy)methyl)nicotinonitrile]	2.1
Cc1c(COc2cc(OCc3cncc(C#N)c3)c(CNCc3ncc[nH]3)cc2Cl)cccc1-c1cccc(OCCCN2CCC(O)(CO)CC2)c1Cl [Example 2011, 5-((2-((((1H-imidazol-2-yl)methyl)amino)methyl)-4-chloro-5-((2′-chloro-3′-(3-(4-hydroxy-4-(hydroxymethyl)piperidin-1-yl)propoxy)-2-methyl-[1,1′-biphenyl]-3-yl)methoxy)phenoxy)methyl)nicotinonitrile]	2.8
Cc1c(COc2cc(OCc3cncc(C#N)c3)c(CNCc3cc[nH]n3)cc2Cl)cccc1-c1cccc(OCCCN2CCC(O)(CO)CC2)c1Cl [Example 2012, 5-((2-((((1H-pyrazol-3-yl)methyl)amino)methyl)-4-chloro-5-((2′-chloro-3′-(3-(4-hydroxy-4-(hydroxymethyl)piperidin-1-yl)propoxy)-2-methyl-[1,1′-biphenyl]-3-yl)methoxy)phenoxy)methyl)nicotinonitrile]	2.6
Cc1c(COc2cc(OCc3cncc(C#N)c3)c(CN(C)Cc3ncn[nH]3)cc2Cl)cccc1-c1cccc(OCCCN2CCC(O)(CO)CC2)c1Cl [Example 2013, 5-((2-((((1H-1,2,4-triazol-5-yl)methyl)(methyl)amino)methyl)-4-chloro-5-((2′-chloro-3′-(3-(4-hydroxy-4-(hydroxymethyl)piperidin-1-yl)propoxy)-2-methyl-[1,1′-biphenyl]-3-yl)methoxy)phenoxy)methyl)nicotinonitrile]	1.1
Cc1c(COc2cc(OCc3cncc(C#N)c3)c(CN(C)Cc3c[nH]cn3)cc2Cl)cccc1-c1cccc(OCCCN2CCC(O)(CO)CC2)c1Cl [Example 2014, 5-((2-((((1H-imidazol-4-yl)methyl)(methyl)amino)methyl)-4-chloro-5-((2′-chloro-3′-(3-(4-hydroxy-4-(hydroxymethyl)piperidin-1-yl)propoxy)-2-methyl-[1,1′-biphenyl]-3-yl)methoxy)phenoxy)methyl)nicotinonitrile]	0.5
Cc1c(COc2cc(OCc3cncc(C#N)c3)c(CN(C)Cc3ncc[nH]3)cc2Cl)cccc1-c1cccc(OCCCN2CCC(O)(CO)CC2)c1Cl [Example 2015, 5-((2-((((1H-imidazol-2-yl)methyl)(methyl)amino)methyl)-4-chloro-5-((2′-chloro-3′-(3-(4-hydroxy-4-(hydroxymethyl)piperidin-1-yl)propoxy)-2-methyl-[1,1′-biphenyl]-3-yl)methoxy)phenoxy)methyl)nicotinonitrile]	3.1
Cc1c(COc2cc(OCc3cncc(C#N)c3)c(CN(C)Cc3cc[nH]n3)cc2Cl)cccc1-c1cccc(OCCCN2CCC(O)(CO)CC2)c1Cl [Example 2016, 5-((2-((((1H-pyrazol-3-yl)methyl)(methyl)amino)methyl)-4-chloro-5-((2′-chloro-3′-(3-(4-hydroxy-4-(hydroxymethyl)piperidin-1-yl)propoxy)-2-methyl-[1,1′-biphenyl]-3-yl)methoxy)phenoxy)methyl)nicotinonitrile]	0.2
